T/C data for 9 molecules are collected here from PubChem BioAssay AID256 (DTP/NCI, 2004).

Values joined by “and” are separate entries in the source; they are usually repeats but may differ in a detail not shown here. Equal entries are not always repeated. Toxic doses and inconclusive results are not listed.

In the assay the test system is CD2F1 mice, L1210 leukemia ip, survival T/C. Nature of the assay: NCI In Vivo Anticancer Drug Screen. Data for tumor model L1210 Leukemia (intraperitoneal) in CD2F1 (CDF1) mice. The settings on record: higher = longer survival. In a few lines: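 Ratio T/C, where T is the treated-group value and C the vehicle-dosed control value, from mice implanted with a transplantable tumor.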

Where [1] appears, read: endpoint: mean survival time, dose: 25.0 mg/kg/injection, schedule: Q01DX009 (ip), vehicle: saline with Tween-80.
The mark [2] stands for this setting: endpoint: mean survival time, dose: 50.0 mg/kg/injection, schedule: Q01DX009 (ip), vehicle: saline with Tween-80.
The mark [3] stands for this setting: endpoint: mean survival time, dose: 100.0 mg/kg/injection, schedule: Q01DX009 (ip), vehicle: saline with Tween-80.
[4] abbreviates: endpoint: mean survival time, dose: 200.0 mg/kg/injection, schedule: Q01DX009 (ip), vehicle: saline with Tween-80.
[5] abbreviates: endpoint: mean survival time, dose: 100.0 mg/kg/injection, schedule: Q04DX003 (ip), vehicle: saline with Tween-80.
The mark [6] stands for this setting: endpoint: mean survival time, dose: 200.0 mg/kg/injection, schedule: Q04DX003 (ip), vehicle: saline with Tween-80.
The mark [7] stands for this setting: endpoint: mean survival time, dose: 400.0 mg/kg/injection, schedule: Q04DX003 (ip), vehicle: saline with Tween-80.
Where [8] appears, read: endpoint: mean survival time, dose: 25.0 mg/kg/injection, schedule: Q01DX009 (ip), vehicle: saline.

Regarding `N=C(N)SCc1cccc2c(=O)cc(-c3ccccc3)oc12`, the T/C by setting is: under setting [1], 95 % of control; under setting [2], 96 % of control; under setting [3], 101 % of control; under setting [4], 104 % of control; (endpoint: median survival time, dose: 25.0 mg/kg/injection, schedule: Q01DX009 (ip), vehicle: saline) 113 % of control; (endpoint: median survival time, dose: 50.0 mg/kg/injection, schedule: Q01DX009 (ip), vehicle: saline) 113 % of control. The T/C runs as follows: (endpoint: median survival time, dose: 100.0 mg/kg/injection, schedule: Q01DX009 (ip), vehicle: saline) 114 % of control; (endpoint: median survival time, dose: 200.0 mg/kg/injection, schedule: Q01DX009 (ip), vehicle: saline) 113 % of control; (endpoint: median survival time, dose: 400.0 mg/kg/injection, schedule: Q01DX009 (ip), vehicle: saline) 97 % of control.

Consider `CCOC(=O)C(C)C(O)(c1ccccc1)c1ccccc1` (stereo not drawn), for which the T/C was 95 % of control (endpoint: mean survival time, dose: 100.0 mg/kg/injection, schedule: Q04DX003 (ip), vehicle: Klucel (hydroxypropylcellulose) (HPC)); 101 % of control (endpoint: mean survival time, dose: 200.0 mg/kg/injection, schedule: Q04DX003 (ip), vehicle: Klucel (hydroxypropylcellulose) (HPC)); 95 % of control (endpoint: mean survival time, dose: 400.0 mg/kg/injection, schedule: Q04DX003 (ip), vehicle: Klucel (hydroxypropylcellulose) (HPC)).

`CC[C@](O)(C(=O)O)c1cc2n(c(=O)c1CO)Cc1cc3ccccc3nc1-2`: the T/C (endpoint: mean survival time, dose: 1.0 mg/kg/injection, schedule: Q04DX003 (ip), vehicle: water) is 100 % of control; the T/C (endpoint: mean survival time, dose: 2.0 mg/kg/injection, schedule: Q04DX003 (ip), vehicle: water) is 107 % of control; the T/C (endpoint: mean survival time, dose: 4.0 mg/kg/injection, schedule: Q04DX003 (ip), vehicle: water) is 108 % of control; the T/C (endpoint: mean survival time, dose: 12.5 mg/kg/injection, schedule: Q04DX003 (ip), vehicle: water) was 159 % of control; the T/C (endpoint: mean survival time, dose: 16.0 mg/kg/injection, schedule: Q04DX003 (ip), vehicle: water) is 175 % of control; the T/C (endpoint: mean survival time, dose: 50.0 mg/kg/injection, schedule: Q04DX003 (ip), vehicle: water) is 113 % of control and 119 % of control. In addition, the T/C runs as follows: (endpoint: mean survival time, dose: 100.0 mg/kg/injection, schedule: Q04DX003 (ip), vehicle: water) 93 % of control; (endpoint: median survival time, dose: 3.75 mg/kg/injection, schedule: Q04HX004 (iv), vehicle: water) 115 % of control; (endpoint: median survival time, dose: 5.0 mg/kg/injection, schedule: Q04DX002 (ip), vehicle: water) 117 % of control and 121 % of control and 123 % of control; (endpoint: median survival time, dose: 5.0 mg/kg/injection, schedule: Q04DX002 (iv), vehicle: water) 115 % of control; (endpoint: median survival time, dose: 6.2 mg/kg/injection, schedule: Q04HX004 (iv), vehicle: water) 167 % of control; (endpoint: median survival time, dose: 6.25 mg/kg/injection, schedule: Q04HX004 (iv), vehicle: saline) 177 % of control. Besides, the T/C (endpoint: median survival time, dose: 6.25 mg/kg/injection, schedule: Q04HX004 (iv), vehicle: water) was 162 % of control and 178 % of control; the T/C (endpoint: median survival time, dose: 7.5 mg/kg/injection, schedule: Q04HX004 (iv), vehicle: other) is 170 % of control; the T/C (endpoint: median survival time, dose: 7.5 mg/kg/injection, schedule: Q04HX004 (iv), vehicle: water) is 166 % of control and 180 % of control; the T/C (endpoint: median survival time, dose: 12.5 mg/kg/injection, schedule: Q04DX003 (ip), vehicle: clinical formulation) was 178 % of control; the T/C (endpoint: median survival time, dose: 12.5 mg/kg/injection, schedule: Q04DX003 (ip), vehicle: saline) was 167 % of control; the T/C (endpoint: median survival time, dose: 12.5 mg/kg/injection, schedule: Q04HX004 (iv), vehicle: saline) was 160 % of control and 190 % of control. Besides, the T/C reads like this: (endpoint: median survival time, dose: 12.5 mg/kg/injection, schedule: Q04HX004 (iv), vehicle: water) 177 % of control and 193 % of control and 196 % of control; (endpoint: median survival time, dose: 15.0 mg/kg/injection, schedule: Q04HX004 (iv), vehicle: dextrose) 195 % of control; (endpoint: median survival time, dose: 15.0 mg/kg/injection, schedule: Q04HX004 (iv), vehicle: other) 192 % of control; (endpoint: median survival time, dose: 15.0 mg/kg/injection, schedule: Q04HX004 (iv), vehicle: water) 200 % of control and 208 % of control; (endpoint: median survival time, dose: 20.0 mg/kg/injection, schedule: Q04DX002 (ip), vehicle: saline) 151 % of control and 168 % of control (2×); (endpoint: median survival time, dose: 25.0 mg/kg/injection, schedule: Q04DX002 (ip), vehicle: water) 156 % of control and 195 % of control. Also, the T/C is, setting by setting: (endpoint: median survival time, dose: 25.0 mg/kg/injection, schedule: Q04DX003 (ip), vehicle: clinical formulation) 229 % of control; (endpoint: median survival time, dose: 25.0 mg/kg/injection, schedule: Q04DX003 (ip), vehicle: saline) 218 % of control; (endpoint: median survival time, dose: 25.0 mg/kg/injection, schedule: Q04HX004 (iv), vehicle: saline) 198 % of control and 226 % of control; (endpoint: median survival time, dose: 25.0 mg/kg/injection, schedule: Q04HX004 (iv), vehicle: water) 206 % of control and 212 % of control and 230 % of control; (endpoint: median survival time, dose: 30.0 mg/kg/injection, schedule: Q04HX004 (iv), vehicle: dextrose) 227 % of control; (endpoint: median survival time, dose: 30.0 mg/kg/injection, schedule: Q04HX004 (iv), vehicle: other) 219 % of control. Further, the T/C is 220 % of control and 227 % of control (endpoint: median survival time, dose: 30.0 mg/kg/injection, schedule: Q04HX004 (iv), vehicle: water); 181 % of control and 185 % of control and 200 % of control (endpoint: median survival time, dose: 40.0 mg/kg/injection, schedule: Q04DX002 (ip), vehicle: saline); 183 % of control (endpoint: median survival time, dose: 40.0 mg/kg/injection, schedule: Q04DX002 (iv), vehicle: water); 247 % of control (endpoint: median survival time, dose: 40.0 mg/kg/injection, schedule: Q04HX004 (iv), vehicle: other); 226 % of control and 253 % of control (endpoint: median survival time, dose: 40.0 mg/kg/injection, schedule: Q04HX004 (iv), vehicle: water); 173 % of control and 217 % of control (endpoint: median survival time, dose: 50.0 mg/kg/injection, schedule: Q04DX002 (ip), vehicle: water). Besides, the T/C reads like this: (endpoint: median survival time, dose: 50.0 mg/kg/injection, schedule: Q04DX003 (ip), vehicle: saline) 263 % of control; (endpoint: median survival time, dose: 50.0 mg/kg/injection, schedule: Q04HX004 (iv), vehicle: saline) 211 % of control and 256 % of control; (endpoint: median survival time, dose: 50.0 mg/kg/injection, schedule: Q04HX004 (iv), vehicle: water) 225 % of control and 261 % of control and 101 % of control; (endpoint: median survival time, dose: 80.0 mg/kg/injection, schedule: Q04DX002 (ip), vehicle: saline) 205 % of control and 216 % of control and 227 % of control; (endpoint: median survival time, dose: 80.0 mg/kg/injection, schedule: Q04DX002 (iv), vehicle: water) 252 % of control; (endpoint: median survival time, dose: 100.0 mg/kg/injection, schedule: Q04DX002 (ip), vehicle: water) 204 % of control and 233 % of control. Besides, the T/C (endpoint: median survival time, dose: 100.0 mg/kg/injection, schedule: Q04DX003 (ip), vehicle: saline) is 108 % of control.

In the case of `COc1ccc(OCCOC(=O)Nc2cc(Cl)c(OC)cc2OC)cc1`, the T/C is, setting by setting: (endpoint: mean survival time, dose: 12.5 mg/kg/injection, schedule: Q01DX009 (ip), vehicle: saline with Tween-80) 106 % of control; under setting [1], 103 % of control; under setting [2], 106 % of control; under setting [3], 92 % of control; under setting [4], 92 % of control.

In the case of `O=C(O)C1CC1c1ccccc1` (stereo not drawn), the T/C was 95 % of control under setting [5], 103 % of control under setting [6] and 100 % of control under setting [7].

In the case of `ClC(Cl)(Cl)C1CCC(Br)C2CCCCC21` (stereo not drawn), the T/C runs as follows: under setting [5], 92 % of control; under setting [6], 100 % of control; under setting [7], 96 % of control.

Turning to `C[As](C)[Se]C1OC(CO)C(O)C(O)C1O` (stereo not drawn), the T/C by setting is: (endpoint: mean survival time, dose: 12.5 mg/kg/injection, schedule: Q01DX009 (ip), vehicle: saline) 103 % of control; (endpoint: mean survival time, dose: 12.5 mg/kg/injection, schedule: Q04DX003 (ip), vehicle: saline) 94 % of control; under setting [8], 100 % of control; (endpoint: mean survival time, dose: 25.0 mg/kg/injection, schedule: Q04DX003 (ip), vehicle: saline) 97 % of control; (endpoint: mean survival time, dose: 50.0 mg/kg/injection, schedule: Q01DX009 (ip), vehicle: saline) 102 % of control; (endpoint: mean survival time, dose: 50.0 mg/kg/injection, schedule: Q04DX003 (ip), vehicle: saline) 100 % of control.

Turning to `CC(C)=CCC/C(C)=C/CN`, the T/C was 98 % of control under setting [8] and 86 % of control (endpoint: mean survival time, dose: 100.0 mg/kg/injection, schedule: Q04DX003 (ip), vehicle: saline).

As for `OCC1OC(n2ccc3c2ncn2ncnc32)C(O)C1O` (stereo not drawn), the T/C runs as follows: (endpoint: mean survival time, dose: 6.25 mg/kg/injection, schedule: Q01DX005 (ip), vehicle: water) 114 % of control; (endpoint: mean survival time, dose: 12.5 mg/kg/injection, schedule: Q01DX005 (ip), vehicle: water) 114 % of control; (endpoint: mean survival time, dose: 25.0 mg/kg/injection, schedule: Q01DX005 (ip), vehicle: water) 117 % of control; (endpoint: mean survival time, dose: 50.0 mg/kg/injection, schedule: Q01DX005 (ip), vehicle: water) 88 % of control and 106 % of control.
